Measured values published in a melting point compilation (Tetko et al.; mined from patent text by program, amines drawn as free bases though some values may be those of a salt).

melting point [°C] | SMILES
> 270 | CC(C)(C)c1cc(-c2nnc(NC(N)=O)s2)cc(C(C)(C)C)c1O
125 to 127 | CCCCN=C(CS(C)=O)c1cccc(OC)c1O (configuration not stated)
193 to 194 | COC(=O)c1c(OC)cc(CC(C#N)=CNc2ccccc2)cc1OC
181 to 183 | COc1ccc(S(=O)(=O)c2ccccc2)cc1S(=O)(=O)NCCc1cccnc1
280 to 285 | C[C@@H](n1cnc2cc(-c3ccc(C(N)=O)cc3)sc2c1=O)[C@](O)(Cn1cncn1)c1ccc(F)cc1F
228 to 229 | COc1ccc2c(CCC(=O)O)nnc(-c3nccs3)c2c1
227 to 229 | CC1(C)CC(=O)C2=C(C1)NC1=C(C(=O)CC(C)(C)C1)C2c1cccc(-c2ccccc2)c1
153 to 155 | CNC(=S)NCCCCc1nc[nH]c1Br
275 | Cc1cc(-c2cc(C(F)(F)F)n3ncc(C(=O)Nc4cccc(S(N)(=O)=O)c4)c3n2)ccc1Cl
256 to 280 | O=C(O)c1ccc(COCc2csc3nc(C(=O)NCc4cccc(F)c4)[nH]c(=O)c23)cc1
232 to 233 | CN1CCN(c2cccc3c2C[C@H](NC(=O)c2ccc(-c4ccccc4)cc2)CC3)CC1
106 to 109 | CCC(CC)Oc1cc(C)nc(Oc2c(C)cc(C)cc2C)c1[N+](=O)[O-]
130 | Cc1cc(C(C)(CC(=O)O)c2ccc(O)c(C)c2)ccc1O
81 to 85 | NS(=O)(=O)Oc1ccccc1
126 | O=[N+]([O-])c1ccc(C#CCCN2CCN(c3ccccn3)CC2)nc1
86 to 88 | CCOC(=O)c1cc2c(OC)cc3c(c2n1Cc1ccccc1)CCCC3
111 to 115 | CC(=O)OC1(N=NC2(OC(C)=O)CC(C)CC(C)(C)C2)CC(C)CC(C)(C)C1 (configuration not stated)
154 to 156 | O=C1Nc2c(Cl)cccc2C1(O)c1ccccc1 (configuration not stated)
130 | C[C@]12C[C@H](c3ccc(OCCCCCS(=O)(=O)CCCc4c(F)c(F)c(F)c(F)c4F)cc3)[C@@H]3c4ccc(O)cc4CC[C@H]3[C@@H]1CC[C@@H]2O
162 to 164 | COC(=O)NCCc1cccc(-c2ccnc3c(C#N)cnn23)c1
222 | COc1oc2cccc(-c3ccc(O)cc3)c2c1C(C)=O
128 to 129 | S=c1[nH]ccn1OCc1cccnc1
129 to 131 | CCCCNC(=S)Nc1ccc(NNC=O)cc1

melting point [°C] | SMILES
115 to 118 | CCCCC(=O)c1cn(C(c2ccccc2)(c2ccccc2)c2ccccc2)cn1
135 to 136 | CCN(C(=O)NC)c1ccc(Cl)nc1
162 | N#Cc1cc(N)ccc1N1CCN(C2CCOCC2)CC1
61 to 62 | Cc1cccc(CCOc2ccc([N+](=O)[O-])cc2)n1
177 to 179 | CC(C)(C)OC(=O)Nc1ccc(NC(=O)C(=O)N2CCC(Cc3ccccc3)CC2)cc1
54 to 55 | CC(C)(C)[Si](C)(C)OCCn1ccc(N)n1
114 to 116 | Cc1c(N)c(C#N)cc(F)c1F
167 to 169 | Nc1ncnc2c1ncn2C1CC(=CF)C(O)C1O (configuration not stated)
152 to 154 | O=C(c1ccccc1)c1ccc2nc(C(F)(F)F)c(Br)nc2c1
152 to 153 | CCOC(=O)CSc1c(C(=O)OCC)[nH]c2cc(Cl)cc(Cl)c12
221 to 223 | COc1cc(OC)c2c(=O)c(OC)c(-c3ccc(O)c(OC)c3)oc2c1
58 to 59 | COc1ccc(CCCCCCCSc2ccccc2)cc1
118 to 121 | CN(C)C=CC(=O)c1ccccc1[N+](=O)[O-]
89 to 92 | Cc1ccc(S(=O)(=O)OCC2Cc3c(C(F)(F)F)ccc(Cl)c3O2)cc1 (configuration not stated)
173 to 174 | NS(=O)(=O)c1ccc(C2=C(c3ccc(F)cc3)CCC2)cc1
177 to 180 | CCOC(=O)c1cn(CC)c2cc(NC(C)=O)c(F)cc2c1=O
171 to 172 | CCCCc1n[nH]c(C(=O)OC)c1Cc1ccc(-c2ccccc2-c2nc(=O)s[nH]2)cc1
98 to 99 | CC(C)(C)CCC(=S)SC(C)(C)C
113 | CCN(CC)C(=O)c1cc2ccccc2c(-c2ccc(C)cc2)n1
175 | COc1ccc(CNC(=O)c2cc(C)sc2N)cc1OC
132 to 133 | COc1cc(C(=O)NCc2ccccc2)cc(NC(=O)c2ccccc2)n1
221 | N#CC1=C(c2ccccc2)Nc2n[nH]cc2C1c1ccccc1[N+](=O)[O-] (configuration not stated)
68 | CC(C)Oc1ccc(F)cc1OCCN1C(=O)c2ccccc2C1=O

melting point [°C] | SMILES
265 to 266 | CCC(=O)Nc1ccc2ncnc(Nc3cccc(Br)c3)c2c1
88 to 89 | COC(=O)c1ccc(COc2cc(F)cc(C3(OC)CCOCC3)c2)cc1
93 to 95 | O=C(Nc1ccc(Oc2ccnc(N3CCCC(O)C3)n2)c2ccccc12)c1cc(F)cc(N2CCCCC2)c1 (configuration not stated)
96 to 106 | Cc1noc(NS(=O)(=O)c2ccccc2-c2ccc(-c3cccnc3)cc2)c1C
199 to 200 | FC(F)(F)c1cccc(CSc2nnc(-c3ncnc4[nH]ccc34)o2)c1
173 | FC(F)c1cc(-c2ccc(C(F)(F)F)cc2)nc2cncn12
47 to 48 | CCOC(=O)Cn1cc(C#N)nn1
> 300 | O=C(O)CC(=O)NCc1cc(Br)cc2[nH]c(=O)c(=O)[nH]c12
118 | CC(C)(C)OC(=O)COC(=O)CCc1c(OCC(=O)OC(C)(C)C)ccc2ccc(OCC(=O)OC(C)(C)C)cc12
77 to 78 | CC(C(=O)CCc1ccc(Cl)cc1)n1cncn1 (configuration not stated)
120 to 122 | CC(C)NC(=O)NC(C)(C)C(=O)NCCO[N+](=O)[O-]
138 to 140 | COc1ccccc1OCC(O)CNc1nc(-c2ccccc2)nc2ccccc12 (configuration not stated)
304 to 310 | O=c1[nH]c(=O)n(Cc2ccc(Cl)cc2)c2nc[nH]c12
132 to 134 | CCOc1cc(C(CC(C)O)N2C(=O)c3cccc(NC(C)=O)c3C2=O)ccc1OC (configuration not stated)
115 | COCc1ccc(S(=O)(=O)N2CCCC2c2ccc(F)cc2)cc1 (racemic)
93 | CCCCC(c1c[nH]cn1)c1cccc(CO)c1O (configuration not stated)
53 to 56 | OCCCCCCOc1ccc2ccccc2c1
90 to 93 | CCOC(=O)N(c1ccc(Cl)cc1)c1ccccc1[N+](=O)[O-]
268 to 270 | Fc1ccc(-c2ccc(N3CCCN(c4ccc(-c5ccc(F)cc5)cn4)CC3)nc2)cc1
240 to 241 | CCP(=O)(CC)Cc1ccc(NC(=O)C2=Cc3cc(-c4ccc(C)cc4)ccc3OCC2)cc1
102 to 103 | CCOC(=O)C(NC(=O)c1ccc(C)c(F)c1)C(=O)OCC
112 to 114 | CCc1ccc2c(c1)CC(NC(=O)C(F)(F)F)C2 (configuration not stated)
146 to 148 | CC(=O)c1cccc(-c2ncc(N=CN(C)C)cn2)c1

SMILES | melting point [°C]
CCCC1NS(=O)(=O)N(CCN2CC=C(c3c[nH]c4cc(F)ccc34)CC2)c2ccccc21 (configuration not stated) | 196 to 198
CCCCCCC(C)(C)c1cc(O)c2c(c1)OC(C)(C)[C@@H]1CCC(=O)C[C@H]21 (relative stereo) | 151 to 153
COC(=O)C12COc3ccccc3C1NN(C(=O)Nc1ccc(C(F)(F)F)cc1)C2 (configuration not stated) | 211 to 212
